Measurements: article PMC12744750 (Plant Communications, 2025)

Test: Anaerobic Cu(I) titration in competition with bicinchoninic acid (BCA)
Assay type: binding
Protocol: Freeze-dried synthetic PLS peptide (Cambridge Research Biochemicals) was dissolved in DMSO. An aliquot was added to aqueous buffer (10 mM HEPES [pH 7], 20 mM NaCl, 80 mM KCl), and absorbance was recorded at 280 nm. PLS concentration was estimated from the absorbance and the ProtParam estimated extinction coefficient of 2980 M^−1 cm^−1. Concurrently, a sample was submitted for quantitative amino acid analysis (Abingdon Health Laboratory Services). From this analysis, a conversion factor of 2.27 was generated, which was applied to the concentrations determined by A280 nm.
A fusion of PLS to MBP was created using the NEBExpress MBP Fusion and Purification System. Two complementary oligonucleotide primers encoding PLS (optimized for expression in E. coli) were annealed and inserted into the pMal-c5x plasmid at the XmnI and SalI insertion sites. The three mutants MBP:PLS(C6S), MBP:PLS(C17S), and MBP:PLS(C6S/C17S) were created by site-directed mutagenesis (QuikChange II, Agilent). E. coli NEB Express containing the pMal plasmid with the correct MBP:PLS mutant was used to overexpress each protein. Harvested cells were resuspended in 20 mM Tris–HCl (pH 7.4), 200 mM NaCl, and 1 mM EDTA, then frozen at −20°C overnight. Cells were defrosted in cold H2O, sonicated, purified by ammonium sulfate precipitation (where MBP-PLS precipitates >60% saturation), separated on an MBP-Trap column (GE Healthcare), and eluted using buffer containing 10 mM maltose. MBP:PLS-containing fractions were pooled and concentrated using a centrifugal concentrator (Corning, Spin-X UF 30 kDa) and buffer exchanged by desalting column into a metal-free buffer of 20 mM HEPES (pH 7.0) and 50 mM NaCl in an anaerobic chamber (Belle Technology). Mutants containing thiols were quantified using Ellman’s assay, and MBP:PLS(C6S/C17S), which lacks all thiols, was quantified using the Bradford assay alone. Samples were also analyzed for metal content by ICP–MS to ensure >95% apo-protein.
All Cu(I) titration experiments were carried out in an anaerobic chamber (Belle Technology) using metal-free CHELEX-treated, degassed buffers. For titration experiments with Cu(I), aqueous CuSO4 stock was quantified in advance by ICP–MS and diluted to working concentrations. The reductant NH2OH was included at a final concentration of 1 mM to maintain Cu(I) in its reduced state. Proteins were diluted in buffer to the final concentration specified in each titration in air-tight quartz cuvettes (Helma), and after addition of probe to the concentration specified, titrated with CuSO4. After each addition, solutions were thoroughly mixed and absorbance spectra recorded using a Lambda 35 UV/Vis spectrophotometer (PerkinElmer). Titration isotherm data were fitted using simulated affinity curves with DynaFit ([Kuzmič, 2009]).

[1] = 44.8 μM synthetic PLS, 87 μM BCA, anaerobic

## PLS(FL): full-length 36-amino-acid PLS peptide from Arabidopsis (MKPRLCFNFRRRSISPCYISISYLLVAKLFKLFKIH)
[1]
  Cu(I) affinity relative to BCA: tighter than that of BCA
  increase in Cu(I) concentration required to saturate BCA: ~20 µM
Synthetic peptide, mutant 40 μM, BCA 93.3 μM, mean ± SD, n = 3 (supplemental Figure 10)
  withholding of Cu(I) from BCA: withholds Cu(I) from BCA
